Assay results published in patent US11753379B2, “Process for forming 2-hydroxypyridine-1-oxide or derivatives thereof” (Clariant International Ltd., priority 2018, dated 2023).
Structures can show the parent of a compound that is named as a salt. Blank lines part the entries; values can stand above or below the compound they belong to.

How the values were obtained:
[1] = Solubility testing in various solvents; format: physicochemical; conditions: for Solubility: directly after addition and after standing for a week
Experimental: A compound according to Formula (2), namely 1-hydroxy-4-methyl-6-(2,4,4-trimethylpentyl)-2(1H)-pyridone, is tested for solubility in various solvents. A 10% (w/w) solution of this compound is tested. The solubility is tested directly after addition as well as after being left to stand for a week.

various microbes = test: MIC tests overall, comparison versus Piroctone Olamine; format: cell-based
Experimental: (§1) A compound according to Formula (2), namely 1-hydroxy-4-methyl-6-(2,4,4-trimethyl pentyl)-2(1H)-pyridone (named as Piroctone in the below table), is tested for efficacy versus various microbes. Comparison is made versus Piroctone Olamine (=Octopirox®).

[2] = tested on: Malassezia pachydermatis DSM 6172; test: MIC test, efficacy versus microbes; format: cell-based; conditions: DSM6172, pH 6.5, Octopirox tested as 5%, Piroctone as 3.98% in butylpolyglycol, read-out: MIC in ppm pH 6.5 (Malassezia Agar)
Experimental: as §1

[3] = tested on: Malassezia furfur DSM 6170; test: MIC test, efficacy versus microbes; format: cell-based; conditions: DSM6170, pH 6.5, Octopirox tested as 5%, Piroctone as 3.98% in butylpolyglycol, read-out: MIC in ppm pH 6.5 (Malassezia Agar)
Experimental: as §1

[4] = tested on: Candida albicans DSM 1386; test: MIC test, efficacy versus microbes; format: cell-based; conditions: DSM1386, pH 6.5, Octopirox tested as 5%, Piroctone as 3.98% in butylpolyglycol, read-out: MIC in ppm pH 6.5 (Malassezia Agar)
Experimental: as §1

[5] = tested on: Saccharomyces cerevisiae DSM 70449; test: MIC test, efficacy versus microbes; format: cell-based; conditions: DSM70449, pH 6.5, Octopirox tested as 5%, Piroctone as 3.98% in butylpolyglycol, read-out: MIC in ppm pH 6.5 (Malassezia Agar)
Experimental: as §1

[6] = tested on: Malassezia globosa ATCC 4889; test: MIC test, efficacy versus microbes; format: cell-based; conditions: ATCC4889, pH 6.5, Octopirox tested as 5%, Piroctone as 3.98% in butylpolyglycol, read-out: MIC in ppm pH 6.5 (Malassezia Agar)
Experimental: as §1

Comments (solubility observation) ([1]; 10% (w/w) in 1,3-Dioxolane): Not soluble.
Comments (solubility observation) ([1]; 10% (w/w) in 2-Methyltetrahydrofuran): Not soluble.
Comments (solubility observation) ([1]; 10% (w/w) in 3-Pentanone): Not completely soluble, supernatant
Comments (solubility observation) ([1]; 10% (w/w) in Acetone (purity >99%)): Dissolves to a large extend.
Comments (solubility observation) ([1]; 10% (w/w) in Ethanol): Dissolves slowly leading to a clear
Comments (solubility observation) ([1]; 10% (w/w) in Isopropanol): Not completely dissolved,
Comments (solubility observation) ([1]; 10% (w/w) in Methanol): Soluble. Resulting soltuion is clear.
Solubility ([1]; 10% (w/w) solution in 1,3-Dioxolane): no
Solubility ([1]; 10% (w/w) solution in 2-Methyltetrahydrofuran): no
Solubility ([1]; 10% (w/w) solution in 3-Pentanone): no
Solubility ([1]; 10% (w/w) solution in Acetone (purity >99%)): no
Solubility ([1]; 10% (w/w) solution in Ethanol): excellently and yes
Solubility ([1]; 10% (w/w) solution in Isopropanol): no
Solubility ([1]; 10% (w/w) solution in Methanol): excellently and yes
Solubility ([1]; 10% (w/w) solution in tert. Butanol (2.5% H2O)): no
Structure (SMILES): Cc1cc(CC(C)CC(C)(C)C)n(O)c(=O)c1 (stereo not shown) [Piroctone, 1-hydroxy-4-methyl-6-(2,4,4-trimethylpentyl)-2(1H)-pyridone]
Mass efficacy better than Piroctone Olamine (various microbes; antimicrobial efficacy per mass): around 20%
Activity in MIC tests compared with Piroctone Olamine (various microbes; conclusion from Experiment 2): same activity in MIC tests at a lower concentration than Piroctone Olamine

MIC [2]: 500 µg/mL
MIC [3]: 500 µg/mL
MIC [4]: 500 µg/mL
MIC [5]: 500 µg/mL
MIC [6]: 500 µg/mL
Structure (SMILES): Cc1cc(CC(C)CC(C)(C)C)n(O)c(=O)c1 (stereo not shown) [Octopirox, monoethanolamine salt of 1-hydroxy-4-methyl-6-(2,4,4-trimethylpentyl)-2(1H)-pyridone]
